Source: patent US9309179B2 (FAB PHARMA S.A.S., priority 2006, dated 2016)
≈ marks a conversion by molar mass, not a printed value. Where two headings read alike, the source gives them in different places.

Experiments:
[1] = biological target: T1, recombinant E. coli FabI enzyme (Escherichia coli, UniProt P0AEK4); assay: FabI inhibition, fluorescence-based NADH assay; assay type: biochemical
T1 construct: 6-His (C); made in house; host or cells: prokaryotic expression vector
Description: Compound inhibitory activity of FabI enzyme is measured in vitro by the IC50 determination using a fluorescent based assay.
The protein FabI from E. coli is prepared and purified using standard methods for recombinant protein expression after cloning of the gene in a prokaryotic expression vector.
The biochemical activity of the FabI enzyme is assessed using the following method.
The assay buffer “AB” contains 50 mM Hepes pH7.5, 100 μM Dithiothreitol, 0.006% Triton-X100. The following components are added in a black polystyrene Costar plate up to a final volume of 55 μL: 1.5 μL DMSO, or inhibitor dissolved in DMSO and 53.5 μL of a FabI/NADH/NAD+ mixture in AB. After 60 min of pre-incubation at room temperature, the reaction is started by addition of 5 μL of Crotonoyl-CoA to a final volume of 60 μL. This reaction mixture is then composed of 40 nM FabI (produced in house from E. coli, C-terminal 6-His tagged), 20 μM NADH (Biochemika), 10 μM NAD+ (Biochemika), 50 μM Crotonoyl-CoA (Biochemika) and compound at defined concentration. Fluorescence intensity of NADH (lex=360 nm, lem=520 nm) is measured immediately after Crotonoyl-CoA addition, and 2 hours later by a Fluostar Optima (BMG). Enzyme activity is proportional to the signal decrease from which inhibition percentages are derived. For IC50 determinations, the inhibitor is tested at 6 to 10 different concentrations, and the related inhibitions are fitted to a classical langmuir equilibrium model using XLFIT (IDBS).
In Vitro Inhibition of Recombinant E. coli FabI Enzyme by Selected Compounds of Formula (I).

E. coli CIP 76.24 = assay: MIC, broth microdilution; assay type: cell-based; details: Escherichia coli, CIP76; broth microdilution, 37° C., 20 h; read-out: MIC E. coli CIP 76.24
Description: (§1) The compounds of the present invention are useful antibacterial agents having a selective spectrum of activity in vitro against standard bacterial strains which are used to screen for activity against pathogenic bacteria. […] The activity is presented as Minimum Inhibitory Concentration (MIC) expressed in μg/ml.
(§2) Whole-cell antimicrobial activity was determined by broth microdilution method in microtiterplates. The compound was tested in serial 4-fold dilutions ranging from 0.06 to 64 mcg/mL. Test organisms were selected from the following laboratory strains: Staphylococcus aureus CIP 76.25, Staphylococcus aureus BAA39 MDR, Staphylococcus aureus NEM 14157 PeniR, Staphylococcus aureus CIP 54.146, Escherichia coli CIP 76.24. Bacteria were tested in Tryptic Soy (TS) or Mueller Hinton (MH) broth using an inoculum of 10^4 to 10^6 UFC/mL incubated at 37° C. for 20 h.
(§3) The minimum inhibitory concentration (MIC) was determined as the lowest concentration of compound at which no visible bacteria growth is observed (90% inhibition of absorbance of at […].)

S. aureus BAA39MDR = assay: MIC, broth microdilution; assay type: cell-based; details: Staphylococcus aureus, broth microdilution, 37° C., 20 h, read-out: MIC S. aureus BAA39MDR
Description: as §1, §2, §3

S. aureus CIP 76.25 = assay: MIC, broth microdilution; assay type: cell-based; details: Staphylococcus aureus, CIP76; broth microdilution, 37° C., 20 h; read-out: MIC S. aureus CIP 76.25
Description: as §1, §2, §3

S. aureus NEM14157 = assay: MIC, broth microdilution; assay type: cell-based; details: Staphylococcus aureus, NEM14157; broth microdilution, 37° C., 20 h; read-out: MIC S. aureus NEM14157
Description: as §1, §2, §3

S. aureus 1651 LRSA* = assay: MIC against resistant strains of S. aureus; assay type: cell-based; details: Staphylococcus aureus, read-out: MIC S. aureus 1651 LRSA*
Description: as §2, §3
(§4) In Vitro Activities Against Resistant Stains of S. aureus

S. aureus 1652 LRSA = assay: MIC against resistant strains of S. aureus; assay type: cell-based; details: Staphylococcus aureus, read-out: MIC S. aureus 1652 LRSA
Description: as §2, §3, §4

S. aureus 2012 VISA = assay: MIC against resistant strains of S. aureus; assay type: cell-based; details: Staphylococcus aureus, read-out: MIC S. aureus 2012 VISA
Description: as §2, §3, §4

S. aureus 2018 VISA* = assay: MIC against resistant strains of S. aureus; assay type: cell-based; details: Staphylococcus aureus, read-out: MIC S. aureus 2018 VISA*
Description: as §2, §3, §4

S. aureus MRSA* = assay: MIC against resistant strains of S. aureus; assay type: cell-based; details: Staphylococcus aureus, read-out: MIC S. aureus MRSA*
Description: as §2, §3, §4

S. aureus USA300 MRSA* = assay: MIC against resistant strains of S. aureus; assay type: cell-based; details: Staphylococcus aureus, read-out: MIC S. aureus USA300 MRSA*
[2] = Methicillin Resistant S. aureus

T1 sequence (P0AEK4 whole entry): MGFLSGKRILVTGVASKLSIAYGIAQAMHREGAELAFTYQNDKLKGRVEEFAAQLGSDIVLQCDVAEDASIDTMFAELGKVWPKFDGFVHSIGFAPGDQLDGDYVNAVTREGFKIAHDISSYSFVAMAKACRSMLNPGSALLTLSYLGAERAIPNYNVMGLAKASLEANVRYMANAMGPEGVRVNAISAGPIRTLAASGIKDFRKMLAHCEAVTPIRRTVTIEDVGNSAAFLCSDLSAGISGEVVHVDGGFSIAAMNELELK

| Structure (SMILES) | IC50 [1] [nM] | MIC (E. coli CIP 76.24) [µg/mL] | MIC (S. aureus BAA39MDR) [µg/mL] | MIC (S. aureus CIP 76.25) [µg/mL] | MIC (S. aureus NEM14157) [µg/mL] | MIC (S. aureus 1651 LRSA*; Linezolid resistant S. aureus) [µg/mL] | MIC (S. aureus 1652 LRSA; Linezolid resistant S. aureus) [µg/mL] | MIC (S. aureus 2012 VISA; VISA strain) [µg/mL] | MIC (S. aureus 2018 VISA*; VISA strain) [µg/mL] | MIC (S. aureus MRSA*; [2]) [µg/mL] | MIC (S. aureus USA300 MRSA*; [2]) [µg/mL] | MIC (S. aureus 1651 LRSA*) [µg/mL] | MIC (S. aureus 1652 LRSA) [µg/mL] | MIC (S. aureus 2012 VISA; VISA) [µg/mL] | MIC (S. aureus 2018 VISA*; VISA) [µg/mL] | MIC (S. aureus MRSA*) [µg/mL] | MIC (S. aureus USA300 MRSA*) [µg/mL] |
| --- | --- | --- | --- | --- | --- | --- | --- | --- | --- | --- | --- | --- | --- | --- | --- | --- | --- |
| CCc1ccc(Oc2cccnc2N)c(O)c1 [Example 21, 2-[(2-aminopyridin-3-yl)oxy]-5-ethylphenol] | 69 | 0.25 (≈ 1.09 µM) | 0.25 (≈ 1.09 µM) | 0.25 (≈ 1.09 µM) | 0.25 (≈ 1.09 µM) | 0.12 (≈ 0.521 µM) | 0.5 (≈ 2.17 µM) | 0.12 (≈ 0.521 µM) | 0.25 (≈ 1.09 µM) | 0.12 (≈ 0.521 µM) | 0.5 (≈ 2.17 µM) | – | – | – | – | – | – |
| CCc1ccc(Oc2ccc(NCCCO)cc2F)c(O)c1 [Example 48, 5-Ethyl-2-[2-fluoro-4-(3-hydroxy-propylamino)-phenoxy]-phenol] | – | 4 (≈ 13.1 µM) | – | 0.062 (≈ 0.203 µM) | – | 0.12 (≈ 0.393 µM) | 0.5 (≈ 1.64 µM) | 0.12 (≈ 0.393 µM) | 0.25 (≈ 0.819 µM) | 0.06 (≈ 0.196 µM) | 0.5 (≈ 1.64 µM) | – | – | – | – | – | – |
| CCc1ccc(Oc2ccc(S(C)(=O)=O)cc2F)c(O)c1 [Example 64, 5-ethyl-2-[2-fluoro-4-(methylsulfonyl)phenoxy]phenol] | 130 | 1 (≈ 3.22 µM) | 0.062 (≈ 0.2 µM) | 0.25 (≈ 0.806 µM) | 0.062 (≈ 0.2 µM) | – | – | – | – | – | – | – | – | – | – | – | – |
| CCCNS(=O)(=O)c1ccc(Oc2ccc(CC)cc2O)c(F)c1 [Example 71, 4-(4-ethyl-2-hydroxyphenoxy)-3-fluoro-N-propyl benzenesulfonamide] | 330 | 4 (≈ 11.3 µM) | 0.25 (≈ 0.707 µM) | < 0.062 | 0.062 (≈ 0.175 µM) | – | – | – | – | – | – | – | – | – | – | – | – |
| CCc1cc(O)c(Oc2cccnc2N)cc1F [Example 84, 2-(2-aminopyridin-3yloxy)-5-ethyl-4-fluorophenol] | 100 | 0.25 (≈ 1.01 µM) | 0.25 (≈ 1.01 µM) | 0.25 (≈ 1.01 µM) | 0.25 (≈ 1.01 µM) | – | – | – | – | – | – | – | – | – | – | – | – |
| CCc1cc(O)c(Oc2cccnc2F)cc1F [Example 87, 5-Ethyl-4-fluoro-2-(2-fluoropyridin-3yloxy)phenol] | 31 | 0.25 (≈ 0.995 µM) | 0.062 (≈ 0.247 µM) | 0.062 (≈ 0.247 µM) | 0.016 (≈ 0.0637 µM) | – | – | – | – | – | – | – | – | – | – | – | – |
| CN[C@H](CC(C)C)C(=O)N[C@H]1C(=O)N[C@@H](CC(N)=O)C(=O)N[C@H]2C(=O)N[C@H]3C(=O)N[C@H](C(=O)N[C@H](C(=O)O)c4cc(O)cc(O)c4-c4cc3ccc4O)[C@H](O)c3ccc(c(Cl)c3)Oc3cc2cc(c3O[C@@H]2O[C@H](CO)[C@@H](O)[C@H](O)[C@H]2O[C@H]2C[C@](C)(N)[C@H](O)[C@H](C)O2)Oc2ccc(cc2Cl)[C@H]1O [Vancomycin, reference compound] | – | – | – | – | – | – | – | – | – | – | – | 1 (≈ 0.69 µM) | 1 (≈ 0.69 µM) | 8 (≈ 5.52 µM) | 4 (≈ 2.76 µM) | 1 (≈ 0.69 µM) | 0.5 (≈ 0.345 µM) |
